Results: US11851391B2, “Antifungal compounds and methods of forming the same” (University of Kentucky Research Foundation, priority 2018, dated 2023)
Values after ≈ are worked out from the molar mass of the structure shown. “Also recorded” adds a separate entry of the source. Like-named read-outs stand apart in the source and are kept apart here. Values belong to the compound of their own block, whether it stands above or below them.

Tests used:
[1] = test system: various yeast strains and filamentous fungi (strains A-M); test: Antifungal activity over the whole panel (summary of MIC data); format: cell-based, Candida and Aspergillus strains
Procedure: The activity of N,N′-diaryl-bishydrazones 7-22 was tested against a panel of seven strains of C. albicans: ATCC 10231(R) (A), ATCC 64124(R) (B), ATCC MYA-2876(S) (C), ATCC 90819(R) (D), ATCC MYA-2310(S) (E), ATCC MYA-1237(R) (F), and ATCC MYA-1003(R) (G). The activity of these bishydrazones 7-22 was also explored against a panel of three non-albicans Candida strains: C. glabrata ATCC 2001 (H), C. krusei ATCC 6258 (I), and C. parapsilosis ATCC 22019 (J). Finally, the activity of these bishydrazones 7-22 was explored against three Aspergillus strains: A. flavus ATCC MYA-3631 (K), A. nidulans ATCC 38163 (L), and A. terreus ATCC MYA-3633 (M).
The MIC values of compounds 7a-24c against yeast cells (strains A-J) were determined in 96-well plates as described in the CLSI document M27-A3 with minor modifications. A single colony of freshly prepared yeast cells was used to inoculate 5 mL of yeast extract peptone dextrose (YPD) broth prior to incubation overnight with shaking at 200 rpm at 35° C. From the actively growing yeast culture, 100 μL were then transferred to 900 μL of sterile ddH2O and re-adjusted to achieve OD600 of 0.12 (˜1×10^6 CFU/mL). The cell suspension was further diluted to achieve 2-4×10^3 CFU/mL in RPMI 1640 medium. […] The final concentration of DMSO was ensured to be <1.25% in all experiments. The MIC values for compounds 7a-24c and CAS were defined as the minimum drug concentration that yielded complete inhibition (also known as MIC-0).
Similarly, the MIC values of compounds 7a-24c, as well as that of the two control drugs against filamentous fungi (strains K-M) were determined as previously described in CLSI document M38-A2. Spores were harvested from sporulating cultures growing on potato dextrose agar (PDA) by filtration through sterile glass wool and enumerated by using a hemocytometer to obtain the desired inoculum size. […] Spore suspensions were added to the wells to afford a final concentration of 5×10^5 CFU/mL. The plates were incubated at 35° C. for 48 h. The MIC values of compounds 7a-24c and CAS against filamentous fungi were based on the complete inhibition of growth when compared to the growth control (MIC-0). […] Each test was performed in triplicate.

[2] = test system: various bacterial strains, including Listeria monocytogenes, methicillin-resistant Staphylococcus aureus, and vancomycin-resistant enterococci; test: Antibacterial activity; format: cell-based
Text: The activity of N,N′-diaryl-bishydrazones 7-22 was explored against various bacterial strains, including Listeria monocytogenes, methicillin-resistant Staphylococcus aureus, and vancomycin-resistant enterococci.

[3] = test system: Candida glabrata ATCC 2001 (strain H); test: MIC determination, in vitro antifungal assay (CLSI M27-A3); format: cell-based; details: MIC-0, 48 h at 35° C.
Outline: (§1)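 Inoculum 2-4×10^3 CFU/mL from overnight YPD culture (OD600 0.12 ≈ 1×10^6 CFU/mL). DMSO <1.25% final.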

[4] = test system: Candida krusei ATCC 6258 (strain I); test: as above; format: cell-based; details: Pichia kudriavzevii, ATCC6258, 48 h, MIC-0, 48 h at 35° C., read-out: MIC
Outline: as §1

[5] = test system: Candida albicans ATCC 10231(R) (strain A); test: as above; format: cell-based; details: Candida albicans, ATCC10231, 48 h, MIC-0 (no visible growth), 48 h at 35° C., read-out: MIC
Outline: (§2)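 MICs followed broth microdilution per CLSI M27-A3 with minor modifications, in RPMI 1640 buffered to pH 7.0 with MOPS at 35° C. Inoculum was 2-4×10^3 CFU/mL from overnight YPD cultures, with DMSO kept <1.25%. MIC was the lowest concentration giving complete inhibition (MIC-0).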

[6] = test system: Candida parapsilosis ATCC 22019 (strain J); test: as above; format: cell-based; details: Lodderomyces parapsilosis, read-out: MIC
Outline: as §2

[7] = test system: C. albicans ATCC MYA-1003(R) (strain G); test: as above; format: cell-based, Candida albicans; details: Candida albicans, 48 h, MIC-0, 48 h at 35° C., read-out: MIC
Outline: as §1

[8] = test system: C. albicans ATCC MYA-2876(S) (strain C); test: as above; format: cell-based, Candida albicans; details: Candida albicans, 48 h, MIC-0, 48 h at 35° C., read-out: MIC
Outline: as §1

[9] = test system: Aspergillus terreus ATCC MYA-3633 (strain M); test: MIC determination against filamentous fungi (CLSI M38-A2); format: cell-based; details: Aspergillus terreus, 48 h, MIC-0, 48 h at 35° C., read-out: MIC
Outline: (§3)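 MIC-0, meaning no visible growth relative to growth control, was scored after 48 h at 35° C, in triplicate. Hemocytometer-counted spores from potato dextrose agar were inoculated at 5×10^5 CFU/mL final. The medium was MOPS-buffered (0.165 M) RPMI 1640 at pH 7.0, following CLSI M38-A2.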

[10] = test system: Aspergillus nidulans ATCC 38163 (strain L); test: as above; format: cell-based; details: Aspergillus nidulans, ATCC38163, 48 h, MIC-0, 48 h at 35° C., read-out: MIC
Outline: as §3

[11] = test system: Aspergillus flavus ATCC MYA-3631 (strain K); test: as above; format: cell-based; details: Aspergillus flavus, 48 h, MIC-0, 48 h at 35° C., read-out: MIC
Outline: as §3

[12] = test system: C. albicans ATCC 64124(R) (strain B); test: MIC determination, in vitro antifungal assay (CLSI M27-A3); format: cell-based, Candida albicans; details: Candida albicans, read-out: MIC
Outline: as §2

[13] = test system: C. albicans ATCC MYA-1237(R) (strain F); test: as above; format: cell-based, Candida albicans; details: Candida albicans, read-out: MIC
Outline: as §2

[14] = test system: C. albicans ATCC 90819(R) (strain D); test: as above; format: cell-based, Candida albicans; details: Candida albicans, ATCC90819, 48 h, MIC-0, 48 h at 35° C., read-out: MIC
Outline: as §2

[15] = test system: C. albicans ATCC MYA-2310(S) (strain E); test: as above; format: cell-based, Candida albicans; details: Candida albicans, read-out: MIC
Outline: as §2

[16] = test system: murine red blood cells (mRBCs); details: mouse, 60 min
Procedure: Thus, the hemolytic activity for these bishydrazones was investigated against murine red blood cells (mRBCs).
Murine red blood cells (mRBCs) were prepared by suspending 1 mL of murine blood in 3 mL of PBS prior to centrifugation at 1,000 rpm for 5 min. The mRBCs were washed four times in PBS and resuspended in the same buffer to a final concentration of 10^7 mRBC/mL. […] The tubes were incubated at 37° C. for 60 min. […] Eppendorf tubes containing 200 μL of ddH2O and 2 μL of 1% v/v Triton™ X-100 served as negative (blank) and positive controls, respectively. The percentage of hemolysis was calculated using the following equation: % hemolysis=[(absorbance of sample)−(absorbance of blank)]×100/(absorbance of positive control).

[17] = test system: C. albicans ATCC 90819(R) (strain D); test: MIC determination, in vitro antifungal assay (CLSI M27-A3); format: cell-based; details: Candida albicans, ATCC90819, strain D; MIC-2 (50% growth inhibition), reported for VOR
[18] = MIC-2 (50% growth inhibition), reported for VOR

MIC ([1]; against all fungal strains tested, with named exceptions, read-out: antifungal activity class based on MIC values): ≥ 31.3 µg/mL | MIC [3]: 15.6 µg/mL (≈ 44.5 µM) | MIC ([3]; Nakaseomyces glabratus, ATCC2001, 48 h, read-out: MIC): 15.6 µg/mL (≈ 44.5 µM) | MIC [4]: 31.3 µg/mL (≈ 89.3 µM) | MIC [5]: 31.3 µg/mL (≈ 89.3 µM) | MIC ([6]; ATCC22019, 48 h, strain J, MIC-0, 48 h at 35° C.): > 31.3 µg/mL | MIC [7]: > 31.3 µg/mL | MIC [8]: > 31.3 µg/mL | MIC [9]: > 31.3 µg/mL | MIC [10]: 31.3 µg/mL (≈ 89.3 µM) | MIC [11]: > 31.3 µg/mL | MIC ([12]; ATCC64124, 48 h, strain B, MIC-0, 48 h at 35° C.): 31.3 µg/mL (≈ 89.3 µM) | MIC ([13]; 48 h, MIC-0, 48 h at 35° C.): 31.3 µg/mL (≈ 89.3 µM) | MIC [14]: > 31.3 µg/mL | MIC ([15]; 48 h, MIC-0, 48 h at 35° C.): 31.3 µg/mL (≈ 89.3 µM)
SMILES: CC(C)(C)N/N=C/c1ccc(-c2ccc(/C=N/NC(C)(C)C)cc2)cc1 [Compound 23b]
antifungal activity (in words) ([1]; over the fungal strains tested, based on MIC data of Table 1): inactive | antibacterial activity (in words) [2]: neither the N,N′-diaryl-bishydrazones 7-22 nor the N,N′-di-tert-butyl-bishydrazone 23b displayed antibacterial activity; also recorded: Neither the N,N′-diaryl-bishydrazones 7-22 or the N,N′-dialkyl-bishydrazone 23b displayed antibacterial activity

MIC [17]: 0.12 µg/mL (≈ 0.344 µM) | MIC [5]: 0.975 µg/mL (≈ 2.79 µM) | MIC ([6]; ATCC22019, strain J, MIC-2 (50% growth inhibition), reported for VOR): 1.95 µg/mL (≈ 5.58 µM) | MIC [9]: > 31.3 µg/mL | MIC [10]: > 31.3 µg/mL | MIC [11]: > 31.3 µg/mL | MIC ([12]; ATCC64124, strain B, MIC-2 (50% growth inhibition), reported for VOR): 0.24 µg/mL (≈ 0.687 µM) | MIC [13, 18]: 0.24 µg/mL (≈ 0.687 µM) | MIC [15, 18]: 0.12 µg/mL (≈ 0.344 µM)
SMILES: C[C@@H](c1ncncc1F)[C@](O)(Cn1cncn1)c1ccc(F)cc1F [VOR, voriconazole, reference compound]
Percentage of hemolysis (±SDEV) ([16]; 0.975 μg/mL): 10.3 ± 2.1% | Percentage of hemolysis (±SDEV) ([16]; 1.95 μg/mL): 6.3 ± 1.9% | Percentage of hemolysis (±SDEV) ([16]; 3.9 μg/mL): 7.5 ± 0.5% | Percentage of hemolysis (±SDEV) ([16]; 7.8 μg/mL): 11.4 ± 10.9% | Percentage of hemolysis (±SDEV) ([16]; 15.6 μg/mL): 2.8 ± 1.3%
